Reference: ChEMBL document CHEMBL1159254, “Isolation and structure of two novel muscarinic receptor antagonists” (J Nat Prod, 1995)

Assays:
[1] = target: T1, Muscarinic acetylcholine receptor M4 (Homo sapiens, UniProt P08173); assay: Displacement of QNB from muscarinic M4 receptor
T1 sequence (P08173 whole entry): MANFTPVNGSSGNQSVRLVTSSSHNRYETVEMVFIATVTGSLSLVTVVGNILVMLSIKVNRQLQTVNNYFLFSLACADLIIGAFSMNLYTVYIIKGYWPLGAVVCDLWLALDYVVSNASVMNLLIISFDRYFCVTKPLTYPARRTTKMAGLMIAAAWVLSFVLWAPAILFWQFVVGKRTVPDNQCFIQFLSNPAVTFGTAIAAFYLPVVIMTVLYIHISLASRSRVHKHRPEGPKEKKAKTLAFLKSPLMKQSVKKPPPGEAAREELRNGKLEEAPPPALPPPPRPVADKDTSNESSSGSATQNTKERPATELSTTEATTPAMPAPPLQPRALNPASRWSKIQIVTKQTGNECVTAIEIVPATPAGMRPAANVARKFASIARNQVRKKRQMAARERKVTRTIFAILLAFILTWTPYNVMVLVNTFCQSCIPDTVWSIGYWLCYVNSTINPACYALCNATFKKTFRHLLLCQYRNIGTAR

[2] = target: T2, Muscarinic acetylcholine receptor M1 (Homo sapiens, UniProt P11229); assay: Displacement of QNB from muscarinic M1 receptor
T2 sequence (P11229 whole entry): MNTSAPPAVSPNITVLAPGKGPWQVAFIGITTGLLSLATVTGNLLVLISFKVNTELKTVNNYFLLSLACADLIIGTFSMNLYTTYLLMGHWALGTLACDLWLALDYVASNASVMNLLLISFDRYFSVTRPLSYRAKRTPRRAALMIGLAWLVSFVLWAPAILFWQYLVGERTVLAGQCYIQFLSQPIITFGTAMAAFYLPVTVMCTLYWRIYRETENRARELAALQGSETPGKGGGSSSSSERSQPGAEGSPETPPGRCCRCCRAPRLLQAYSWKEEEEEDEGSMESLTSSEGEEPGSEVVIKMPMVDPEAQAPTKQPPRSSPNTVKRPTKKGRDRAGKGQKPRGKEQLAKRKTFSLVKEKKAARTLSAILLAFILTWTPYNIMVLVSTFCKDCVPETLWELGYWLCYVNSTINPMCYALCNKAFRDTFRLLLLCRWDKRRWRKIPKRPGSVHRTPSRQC

[3] = target: T3, Muscarinic acetylcholine receptor M2 (Homo sapiens, UniProt P08172); assay: Displacement of QNB from muscarinic M2 receptor
T3 sequence (P08172 whole entry): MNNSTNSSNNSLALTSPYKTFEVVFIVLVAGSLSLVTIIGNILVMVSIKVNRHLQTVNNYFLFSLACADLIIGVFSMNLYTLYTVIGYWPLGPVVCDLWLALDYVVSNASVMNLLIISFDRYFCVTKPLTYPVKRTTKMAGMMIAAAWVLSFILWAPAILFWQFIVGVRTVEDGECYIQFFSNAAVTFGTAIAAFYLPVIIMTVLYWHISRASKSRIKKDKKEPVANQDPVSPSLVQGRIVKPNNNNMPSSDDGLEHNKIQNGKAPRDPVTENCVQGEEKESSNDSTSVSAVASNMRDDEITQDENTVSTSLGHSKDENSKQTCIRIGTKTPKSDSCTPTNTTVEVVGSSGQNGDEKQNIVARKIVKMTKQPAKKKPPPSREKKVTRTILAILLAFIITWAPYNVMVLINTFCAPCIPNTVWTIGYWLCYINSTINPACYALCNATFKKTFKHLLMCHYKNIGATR

IC50 [1]	IC50 [2]	IC50 [3]	SMILES
0.01 µM	0.007 µM	0.006 µM	NC(N)=NCCCCCCCCC(=O)C(N)CCCN=C(N)N (stereo unspecified)
0.91 µM	1.41 µM	0.96 µM	CC(=O)NC(CCCNC(=N)N)C(=O)CCCCCCCCNC(=N)N (stereo unspecified)
